Results: ChEMBL document CHEMBL3421604, “Treating pain with somatostatin receptor subtype 4 agonists” (ACS Med Chem Lett, 2015)

What was measured:
[1] = Metabolic stability in pooled human liver microsomes assessed as half life at 0.1 uM at 37 degC in presence of NADPH by LC-MS/MS method; assay type: ADME
[2] = target: Somatostatin receptor type 5 (Homo sapiens, UniProt P35346); assay: Displacement of [3-125l-Tyr]-somatostatin-(1 -14) from human recombinant somatostatin 5 receptor expressed in CHO cell membranes incubated for 180 mins
[3] = target: Somatostatin receptor type 2 (Homo sapiens, UniProt P30874); assay: Displacement of [3-125l-Tyr]-somatostatin-(1 -14) from human recombinant somatostatin 2 receptor expressed in CHO cell membranes incubated for 180 mins
[4] = target: Somatostatin receptor type 3 (Homo sapiens, UniProt P32745); assay: Displacement of [3-125l-Tyr]-somatostatin-(1 -14) from human recombinant somatostatin 3 receptor expressed in CHO cell membranes incubated for 180 mins
[5] = target: Somatostatin receptor type 1 (Homo sapiens, UniProt P30872); assay: Displacement of [3-125l-Tyr]-somatostatin-(1 -14) from human recombinant somatostatin 1 receptor expressed in CHO cell membranes incubated for 180 mins
Somatostatin receptor type 1, sequence (P30872 whole entry): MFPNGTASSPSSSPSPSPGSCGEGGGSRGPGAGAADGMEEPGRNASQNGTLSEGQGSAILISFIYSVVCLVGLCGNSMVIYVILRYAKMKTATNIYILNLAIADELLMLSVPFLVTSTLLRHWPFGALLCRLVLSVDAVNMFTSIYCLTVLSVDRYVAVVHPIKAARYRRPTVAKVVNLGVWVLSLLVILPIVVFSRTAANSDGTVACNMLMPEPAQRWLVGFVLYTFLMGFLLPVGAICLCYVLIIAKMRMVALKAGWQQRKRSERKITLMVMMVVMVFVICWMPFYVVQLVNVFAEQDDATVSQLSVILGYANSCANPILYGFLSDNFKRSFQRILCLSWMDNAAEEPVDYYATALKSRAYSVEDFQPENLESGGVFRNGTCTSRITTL

Somatostatin receptor type 2, sequence (P30874 whole entry): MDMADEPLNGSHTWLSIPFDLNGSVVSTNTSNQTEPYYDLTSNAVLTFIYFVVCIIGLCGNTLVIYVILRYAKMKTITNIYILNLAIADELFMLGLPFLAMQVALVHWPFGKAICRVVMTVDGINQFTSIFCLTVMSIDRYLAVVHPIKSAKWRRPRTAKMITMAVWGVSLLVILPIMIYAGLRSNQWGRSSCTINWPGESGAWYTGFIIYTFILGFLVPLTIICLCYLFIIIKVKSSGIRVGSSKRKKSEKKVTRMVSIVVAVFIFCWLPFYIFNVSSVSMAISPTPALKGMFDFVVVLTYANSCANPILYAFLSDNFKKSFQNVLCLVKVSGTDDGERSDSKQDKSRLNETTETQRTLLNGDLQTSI
Somatostatin receptor type 3, sequence (P32745 whole entry): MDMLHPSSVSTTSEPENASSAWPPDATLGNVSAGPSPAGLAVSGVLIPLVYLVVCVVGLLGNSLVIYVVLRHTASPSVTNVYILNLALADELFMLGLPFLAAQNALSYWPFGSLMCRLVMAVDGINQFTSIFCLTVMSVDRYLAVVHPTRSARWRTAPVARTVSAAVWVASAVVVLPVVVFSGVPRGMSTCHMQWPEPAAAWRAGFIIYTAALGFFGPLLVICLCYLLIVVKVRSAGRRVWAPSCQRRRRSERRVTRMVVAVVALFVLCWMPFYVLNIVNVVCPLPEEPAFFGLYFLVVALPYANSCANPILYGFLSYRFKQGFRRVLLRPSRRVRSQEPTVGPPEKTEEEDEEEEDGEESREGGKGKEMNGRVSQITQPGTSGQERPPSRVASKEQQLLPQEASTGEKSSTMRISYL
Somatostatin receptor type 5, sequence (P35346 whole entry): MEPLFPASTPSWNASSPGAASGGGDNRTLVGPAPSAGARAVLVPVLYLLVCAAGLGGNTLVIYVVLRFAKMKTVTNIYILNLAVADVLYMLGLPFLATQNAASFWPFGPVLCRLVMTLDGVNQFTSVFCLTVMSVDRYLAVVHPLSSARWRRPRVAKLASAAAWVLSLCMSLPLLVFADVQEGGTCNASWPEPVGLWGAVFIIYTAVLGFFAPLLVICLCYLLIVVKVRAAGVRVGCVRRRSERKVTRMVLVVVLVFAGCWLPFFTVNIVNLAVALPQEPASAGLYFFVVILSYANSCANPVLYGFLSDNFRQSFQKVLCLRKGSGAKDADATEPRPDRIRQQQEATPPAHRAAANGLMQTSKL

Row | Compound | half-life at 0.1 µM [1] [h] | Ki [2] [µM] | Ki [3] [µM] | Ki [4] [µM] | Ki [5] [µM]
1 | Cc1cc2ccccc2c(C(C)(C)NC(=O)[C@H]2[C@@H]3CNC[C@@H]32)n1 | > 2.17 | > 9.85 | > 9.59 |  | 
2 | Cn1nc(C(C)(C)NC(=O)[C@H]2[C@@H]3CNC[C@@H]32)c2ccccc21 | > 2.17 | > 9.86 | > 9.6 | > 8.62 | 
3 | CC(C)(NC(=O)[C@H]1[C@@H]2CNC[C@@H]21)c1noc2c(F)cccc12 | > 2.17 | > 9.85 | > 9.6 | > 8.6 | > 9.09
4 | Cc1nc(C(C)(C)NC(=O)[C@H]2[C@@H]3CNC[C@@H]32)c2ccccc2n1 | > 2.17 | > 9.86 | > 9.63 | > 8.71 | 
